Experimental data reported in the supplement of paper PMC10307832.

Legend:
Test in all cases: relative viability (nuclei count vs DMSO), 5 days (fraction); higher = more cells survive
AZ505 + OSI-027 = compound: C1CCC(CC1)N(CCNCCC2=C3C(=C(C=C2)O)NC(=O)CO3)C(=O)CCNCCC4=CC(=C(C=C4)Cl)Cl [AZ505] + COc1cccc2cc(-c3nc([C@H]4CC[C@H](C(=O)O)CC4)n4ncnc(N)c34)[nH]c12 [OSI-027] (partner 0.5 µM)
In short: (§1)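 After 5 days of treatment, lung cancer cells in 1536-well plates were fixed and stained in a single step (final 0.05% Triton X-100, 1% formaldehyde, 1 ug/ml Hoechst) and their nuclei counted on 4× images. Treatment had been applied by pin tool the day after seeding as one drug alone or as a fixed anchor-drug dose with five library-drug doses (not always all listed) in √10 steps. Relative viability is the nuclei count of treated wells divided by that of vehicle wells, and values are medians of duplicate plates.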

AZ505 + Crizotinib = compound: C1CCC(CC1)N(CCNCCC2=C3C(=C(C=C2)O)NC(=O)CO3)C(=O)CCNCCC4=CC(=C(C=C4)Cl)Cl [AZ505] + C[C@@H](Oc1cc(-c2cnn(C3CCNCC3)c2)cnc1N)c1c(Cl)ccc(F)c1Cl [Crizotinib] (partner 1 µM)
In short: as §1

Dactolisib + OSI-027 = compound: Cn1c(=O)n(-c2ccc(C(C)(C)C#N)cc2)c2c3cc(-c4cnc5ccccc5c4)ccc3ncc21 [Dactolisib] + COc1cccc2cc(-c3nc([C@H]4CC[C@H](C(=O)O)CC4)n4ncnc(N)c34)[nH]c12 [OSI-027] (partner 0.5 µM)
In short: as §1

AZ505 + Decitabine = compound: C1CCC(CC1)N(CCNCCC2=C3C(=C(C=C2)O)NC(=O)CO3)C(=O)CCNCCC4=CC(=C(C=C4)Cl)Cl [AZ505] + Nc1ncn([C@H]2C[C@H](O)[C@@H](CO)O2)c(=O)n1 [Decitabine] (partner 2 µM)
In short: as §1

Cell Line	relative viability (AZ505 + OSI-027; first compound 0.08 µM)	relative viability (AZ505 + OSI-027; first compound 0.253 µM)	relative viability (AZ505 + OSI-027; first compound 0.8 µM)	relative viability (AZ505 + OSI-027; first compound 2.53 µM)	relative viability (AZ505 + OSI-027; first compound 8 µM)	relative viability (AZ505 + Crizotinib; first compound 0.08 µM)	relative viability (AZ505 + Crizotinib; first compound 0.253 µM)	relative viability (AZ505 + Crizotinib; first compound 0.8 µM)	relative viability (AZ505 + Crizotinib; first compound 2.53 µM)	relative viability (AZ505 + Crizotinib; first compound 8 µM)	relative viability (Dactolisib + OSI-027; first compound 0.002 µM)	relative viability (Dactolisib + OSI-027; first compound 0.006325 µM)	relative viability (Dactolisib + OSI-027; first compound 0.02 µM)	relative viability (Dactolisib + OSI-027; first compound 0.06325 µM)	relative viability (Dactolisib + OSI-027; first compound 0.2 µM)	relative viability (AZ505 + Decitabine; first compound 0.08 µM)	relative viability (AZ505 + Decitabine; first compound 0.253 µM)	relative viability (AZ505 + Decitabine; first compound 0.8 µM)	relative viability (AZ505 + Decitabine; first compound 2.53 µM)	relative viability (AZ505 + Decitabine; first compound 8 µM)
NCI-H520	0.26	0.285	0.288	0.306	0.322	0.744	0.899	0.704	0.727	0.728	0.285	0.303	0.308	0.204	0.189	0.458	0.583	0.465	0.519	0.601
NCI-H647	0.615	0.698	0.488	0.619	0.693	0.941	1.15	0.993	0.957	1.25	0.734	0.863	0.499	0.144	0.184	0.356	0.451	0.372	0.373	0.379
NCI-H1792	0.712		0.687	0.718	0.739	0.734	1.08	0.935	0.928	1.11	0.742	0.72	0.654	0.391	0.266	0.494	0.481	0.602	0.51	0.604
SW 1573	0.589	0.579	0.689	0.68	0.63	0.878	0.868	0.927	0.733	0.886	0.702	0.579	0.5	0.199	0.167	0.517	0.63	0.569	0.476	0.501
ChaGo-K-1	0.53	0.448	0.593	0.699	0.537	1.17	1.04	1.12	0.958	1.15	0.538	0.528	0.571	0.537	0.609	0.51	0.529	0.478	0.541	0.517
NCI-H1650	0.7	0.677	0.672	0.554	0.806	0.985	1.12	0.991	0.963	0.915	0.775	0.598	0.593	0.455	0.282	0.367	0.405	0.502	0.368	0.427
NCI-H2009	0.615	0.591	0.582	0.539	0.59	0.989	1.03	0.976	1	0.976	0.74	0.659	0.754	0.404	0.266	0.451	0.397	0.361	0.362	0.365
LOU-NH91	0.634	0.674	0.638	0.672	0.656	0.713	0.723	0.722	0.778	0.72	0.701	0.716	0.741	0.732	0.519	0.783	0.818	0.781	0.801	0.805
NCI-H2405	0.436	0.511	0.528	0.574	0.501	0.634	0.596	0.586	0.565	0.63	0.67	0.652	0.685	0.543	0.464	0.605		0.702	0.703	0.647
LCLC-97TM1	0.389	0.335	0.495	0.395	0.644	0.503	0.479	0.478	0.709	0.413	0.673	0.564	0.542	0.717	0.459	0.195	0.253	0.244		0.228
NCI-H596	0.591	0.517	0.937	0.685	0.847	0.922	0.495	0.799	0.972	0.985	0.694	0.653	0.692	0.399	0.315	0.976		0.974	1.15	0.979
NCI-H727	0.388	0.576	0.517		0.651	0.683	0.829	0.738	0.805	0.827	0.519	0.435	0.538	0.47	0.4	0.829	0.693	0.812	0.849	0.987
H3255	0.548	0.675	0.617	0.624	0.559	0.702	0.854	0.904	0.913	0.918	0.724	0.469	0.623	0.609	0.488		0.607	0.583	0.6	0.925
SK-MES-1	0.501	0.53	0.534	0.577	0.583	0.901	0.967	0.947	0.904	0.916	0.612	0.601	0.603	0.324	0.242	0.369	0.409	0.392	0.412	0.439
NCI-H1437	0.864	0.963	0.911	0.823	0.872	0.801	0.852	0.863	0.927	0.895	0.849	0.903	0.883	0.834	0.586	0.574	0.571	0.62	0.625	0.555
LU99A		0.346	0.271	0.32	0.329	0.474	0.592	0.594	0.638	0.575	0.294	0.327	0.332	0.314	0.276	0.841	0.921	0.802		0.87
